Results published in patent US10273228B2, “Hepatitis B viral assembly effectors” (Indiana University Research and Technology Corporation, priority 2015, dated 2019).
Like-named read-outs stand apart in the source and are kept apart here.

Columns and labels:
[1] = system: HBV viral load, AD38 cells; test: Activity of test compounds on viral production from AD38 cells (viral load by quantitative PCR of the core sequence in supernatant); assay type: cell-based, Hepatitis B virus; settings: 10 μM compound, 6 days at 37° C., vs DMSO control wells; for activity at 10 µM: Hepatitis B virus, 144 h, read-out: AD38 Viral Load (CpAM/DMSO %) at 10 μM
Method: (§1) AD38 cells were then re-suspended with 10 mL of treatment medium and counted. Wells of a collagen coated 96-well NUNC microtiter plate were seeded at 50,000/well in 180 μL of treatment medium, and 20 μL of either 10% DMSO (Control) or a 10× solution of test compound in 10% DMSO in treatment media was added for a final compound concentration 1, 3, or 10 μM (1.0% final [DMSO]) and plates were incubated for 6 days at 37° C.
Subsequently viral load production was assayed by quantitative PCR of the core sequence. Briefly, 5 μL of clarified supernatant was added to a PCR reaction mixture that contained forward primers HBV-f 5′-CTGTGCCTTGGGTGGCTTT-3′, Reverse primers HBV-r 5′-[…]-3′ and Fluorescent TaqMan™ Probes HBV-probe 5′-FAM/AGCTCCAAA/ZEN/[…]/3IABkFQ-3′ in Quanta Biosciences PerfeCTa® qPCR Toughmix®, and was subsequently on an Applied Biosystems VIIA7 in a final volume of 20 μL. The PCR mixture was incubated at 45° C. for 5 minutes, then 95° C. for 10 min, followed by 40 cycles of 10 seconds at 95° C. and 20 seconds at 60° C. Viral load was quantitated against known standards by using ViiA™ 7 Software. Viral load in the supernatant from wells with treated cells were compared against viral load in supernatant from DMSO control wells (≥3 per plate).

AD38 cells = test: AD38 viability normalized to DMSO control; assay type: cell-based; settings: 10 μM compound, vs DMSO control
Method: as §1

Row | Compound | activity at 10 µM ([1]; Table 6) [%] | AD38 Viability Normalized Result (CPAM/DMSO %) at 10 μM (AD38 cells; Table 6) [%] | AD38 Viability Normalized Result (CPAM/DMSO %) at 10 μM (AD38 cells; Table 9) [%] | further results
1 | COc1ccc(S(=O)(=O)N2CCN(c3nc(C)cc(Nc4cccnc4)n3)CC2)cc1 [Compound 1234] | 82 | 101 | – | –
2 | O=C(O)c1ccc(S(=O)(=O)N2CCN(c3nc(Nc4ccc(F)cc4)cc(C(F)(F)F)n3)CC2)cc1 [Compound 1388, 4-((4-(4-((4-fluorophenyl)amino)-6-(trifluoromethyl)pyrimidin-2-yl)piperazin-1-yl)sulfonyl) benzoic acid] | – | – | 106 | activity at 10 µM ([1]; Table 9): 15%
3 | CCCCOc1ccc(S(=O)(=O)N2CCN(c3nc(Nc4ccc(F)cc4)cc(-c4nccs4)n3)CC2)cc1 [Compound 1368] | – | – | 94 | AD38 Viral Load (CpAM/DMSO %) at 10 μM ([1]; Table 9): 147%
4 | COc1ccc(S(=O)(=O)N2CCN(c3nc(Nc4ccc(C)cc4)cc(N4CCNCC4)n3)CC2)cc1 [Compound 1202, 2-(4-((4-methoxyphenyl)sulfonyl)piperazin-1-yl)-6-(piperazin-1-yl)-N-(p-tolyl) pyrimidin-4-amine] | 51 | 106 | – | –
5 | CCCCOc1ccc(S(=O)(=O)N2CCN(c3nc(Nc4ccc(C#N)cc4)cc(-c4cncs4)n3)CC2)cc1 [Compound 1369] | – | – | 96 | activity at 10 µM ([1]; Table 9): 56%
6 | CN(C)c1cc(Nc2ccc(F)cc2)nc(N2CCN(S(=O)(=O)c3ccc(F)cc3)CC2)n1 [Compound 1302] | 52 | 112 | – | –
7 | O=S(=O)(c1cccc(C(F)(F)F)c1)N1CCN(c2nc(Oc3ccc(F)cc3)cc(-n3cnnc3)n2)CC1 [Compound 1309] | 26 | 67 | – | –
8 | O=S(=O)(c1ccc(OCCN2CCOCC2)cc1)N1CCN(c2nc(Nc3ccc(F)cc3)cc(C(F)(F)F)n2)CC1 [Compound 1390, N-(4-fluorophenyl)-2-(4-((4-(2-morpholinoethoxy)phenyl)sulfonyl)piperazin-1-yl)-6-(trifluoromethyl) pyrimidin-4-amine] | – | – | 104 | activity at 10 µM ([1]; Table 9): 1%
9 | CN(C)c1cc(Oc2ccc(F)cc2)nc(N2CCN(S(=O)(=O)c3ccccc3)CC2)n1 [Compound 1299] | 54 | 112 | – | –
10 | O=S(=O)(c1ccccc1)N1CCN(c2nc(Oc3ccc(F)cc3)cc(-n3cnnc3)n2)CC1 [Compound 1311] | 66 | 86 | – | –
11 | COC(=O)Cc1ccc(S(=O)(=O)N2CCN(c3nc(C)cc(Nc4ccc(F)cc4)n3)CC2)cc1 [Compound 1393, methyl 2-(4-((4-(4-((4-fluorophenyl)amino)-6-methylpyrimidin-2-yl)piperazin-1-yl)sulfonyl)phenyl) acetate] | – | – | 102 | AD38 Viral Load (CpAM/DMSO %) at 10 μM ([1]; Table 9): 79%
12 | N#Cc1ccc(Nc2cc(C(F)(F)F)nc(N3CCN(S(=O)(=O)c4ccc(F)cc4)CC3)n2)cc1 [Compound 1326] | 2 | – | – | –
13 | O=S(=O)(c1ccc(F)cc1)N1CCN(c2nc(Oc3ccc(F)cc3)cc(-n3cnnc3)n2)CC1 [Compound 1307] | 84 | 94 | – | –
14 | COc1ccc(S(=O)(=O)N2CCN(c3nc(C)cc(Nc4ccc(F)cc4)n3)CC2(C)C)cc1 [Compound 1370] | – | – | 114 | activity at 10 µM ([1]; Table 9): 12%
15 | COc1ccc(S(=O)(=O)N2CCN(c3cc(C)cc(Nc4ccc(C)cc4)n3)CC2)cc1 [Compound 1172] | 21 | 107 | – | –
16 | COC(=O)Cc1cccc(S(=O)(=O)N2CCN(c3nc(C)cc(Nc4ccc(F)cc4)n3)CC2)c1 [Compound 1412, methyl 2-(3-((4-(4-((4-fluorophenyl)amino)-6-methylpyrimidin-2-yl)piperazin-1-yl)sulfonyl)phenyl) acetate] | – | – | 109 | activity at 10 µM ([1]; Table 9): 61%
17 | COc1ccc(S(=O)(=O)N2CCN(c3nc(C)cc(Oc4ccc(C)cc4)n3)CC2)cc1 [Compound 1152] | 20 | 107 | – | –
18 | Cc1ccc(Nc2cc(C)nc(N3CCN(S(=O)(=O)c4c[nH]cn4)CC3)n2)cc1 [Compound 1134] | 32 | 123 | – | –
19 | CN(C)c1cc(Nc2ccc(F)cc2)nc(N2CCN(S(=O)(=O)c3cccc(C(F)(F)F)c3)CC2)n1 [Compound 1305] | 4 | 6 | – | –
20 | CCOc1ccc(S(=O)(=O)N2CCN(c3nc(Nc4ccc(C#N)cc4)cc(-c4cncs4)n3)CC2)cc1 [Compound 1373] | – | – | 109 | activity at 10 µM ([1]; Table 9): 8%

Row | Compound | activity at 10 µM ([1]; Table 6) [%] | AD38 Viability Normalized Result (CPAM/DMSO %) at 10 μM (AD38 cells; Table 6) [%] | AD38 Viability Normalized Result (CPAM/DMSO %) at 10 μM (AD38 cells; Table 9) [%] | further results
21 | CNc1cc(Nc2ccc(C)cc2)nc(N2CCN(S(=O)(=O)c3ccc(OC)cc3)CC2)n1 [Compound 1243] | 32 | 109 | – | –
22 | Cc1cc(Nc2ccc(F)cc2)nc(N2CCN(S(=O)(=O)c3ccc(F)cc3)CC2)n1 [Compound 1347] | – | – | 7 | activity at 10 µM ([1]; Table 9): 2%
23 | Cc1cc(Nc2ccc(F)cc2)nc(N2CCN(S(=O)(=O)c3ccc(C(=O)O)cc3)CC2)n1 [Compound 1381, 4-((4-(4-((4-fluorophenyl)amino)-6-methylpyrimidin-2-yl)piperazin-1-yl)sulfonyl) benzoic acid] | – | – | 107 | activity at 10 µM ([1]; Table 9): 46%
24 | COC(=O)CCCOc1ccc(S(=O)(=O)N2CCN(c3nc(C)cc(Nc4ccc(F)cc4)n3)CC2)cc1 [Compound 1387, methyl 4-(4-((4-(4-((4-fluorophenyl)amino)-6-methylpyrimidin-2-yl)piperazin-1-yl)sulfonyl)phenoxy) butanoate] | – | – | 107 | activity at 10 µM ([1]; Table 9): 19%
25 | COc1ccc(S(=O)(=O)N2CCN(c3nc(C)cc(Nc4ccc(C)nc4)n3)CC2)cc1 [Compound 1194] | 64 | 109 | – | –
26 | COc1ccc(S(=O)(=O)N2CCN(c3nc(Nc4ccc(C)cc4)cc(-n4cncn4)n3)CC2)cc1 [Compound 1230] | 0 | 95 | – | –
27 | COc1ccc(S(=O)(=O)N2CCN(c3nc(Nc4ccc(C)cc4)cc(N4CCSCC4)n3)CC2)cc1 [Compound 1241, 2-(4-((4-methoxyphenyl)sulfonyl)piperazin-1-yl)-6-thiomorpholino-N-(p-tolyl) pyrimidin-4-amine] | 65 | 98 | – | –
28 | C[C@@H](Oc1ccc(S(=O)(=O)N2CCN(c3nc(Nc4ccc(F)cc4)cc(C(F)(F)F)n3)CC2)cc1)C(=O)O [Compound 1409, (R)-2-(4-((4-(4-((4-fluorophenyl)amino)-6-(trifluoromethyl)pyrimidin-2-yl)piperazin-1-yl)sulfonyl)phenoxy) propanoic acid] | – | – | 108 | activity at 10 µM ([1]; Table 9): 59%
29 | Cc1cc(Nc2ccc(C#N)cc2)nc(N2CCN(S(=O)(=O)c3ccc(O)cc3)CC2)n1 [Compound 1328] | 9 | – | – | –
30 | O=C(O)CCCOc1ccc(S(=O)(=O)N2CCN(c3nc(Nc4ccc(F)cc4)cc(C(F)(F)F)n3)CC2)cc1 [Compound 1398, 4-(4-((4-(4-((4-fluorophenyl)amino)-6-(trifluoromethyl)pyrimidin-2-yl)piperazin-1-yl)sulfonyl)phenoxy) butanoic acid] | – | – | 0 | activity at 10 µM ([1]; Table 9): 4%
31 | COc1ccc(S(=O)(=O)N2CCN(c3nc(Nc4ccc(C#N)cc4)cc(C(F)(F)F)n3)CC2)cc1 [Compound 1329] | 1 | – | – | –
32 | N#Cc1ccc(Nc2cc(C(F)(F)F)nc(N3CCN(S(=O)(=O)c4ccccc4)CC3)n2)cc1 [Compound 1325] | 1 | – | – | –
33 | Cc1cc(Nc2ccc(C#N)cc2)nc(N2CCN(S(=O)(=O)c3ccc(F)cc3)CC2)n1 [Compound 1319] | 5 | – | – | –
34 | Cc1cc(Nc2ccc(C#N)cc2)nc(N2CCN(S(=O)(=O)c3ccccc3)CC2)n1 [Compound 1327] | 1 | – | – | –
35 | Cc1ccc(S(=O)(=O)N2CCN(c3nc(Nc4ccc(C#N)cc4)cc(C(F)(F)F)n3)CC2)cc1 [Compound 1324] | 1 | – | – | –
36 | N#Cc1ccc(Nc2cc(C(F)(F)F)nc(N3CCN(S(=O)(=O)c4ccc(C(F)(F)F)cc4)CC3)n2)cc1 [Compound 1320] | 18 | – | – | –
37 | Cc1ccc(S(=O)(=O)N2CCN(c3nc(C)cc(Nc4ccc(C#N)cc4)n3)CC2)cc1 [Compound 1321] | 1 | – | – | –
38 | Cc1cc(Nc2ccc(C#N)cc2)nc(N2CCN(S(=O)(=O)c3ccc(C(F)(F)F)cc3)CC2)n1 [Compound 1322] | 35 | – | – | –
39 | Cc1ccc(S(=O)(=O)N2CCN(c3nc(Nc4ccc(F)cc4)cc(-n4cnnc4)n3)CC2)cc1 [Compound 1316] | 25 | – | – | –
